Test results taken from US7129257B1, “Pyrazolo[3,4- e]benzoxazoles for the treatment of glaucoma” (Alcon, Inc., priority 2003, dated 2006).

Key:
5-HT2A receptor [1] = target: T1, 5-HT2A receptor (Rattus norvegicus, UniProt P14842); experiment: 5-HT2 Receptor Binding Assay ([125I]DOI competition); conditions: [125I]DOI binding, post mortem rat or human cerebral cortex homogenates
Description: The procedures described herein in Method 1 can be used to confirm a compound's 5-HT2 binding affinity.
5-HT2 Receptor Binding Assay
Aliquots of post mortem rat or human cerebral cortex homogenates (400 μL) dispersed in 50 mM TrisHCl buffer (pH 7.4) are incubated with [^125I]DOI (80 pM final) in the absence or presence of methiothepin (10 μM final) to define total and non-specific binding, respectively, in a total volume of 0.5 mL. The assay mixture is incubated for 1 hour at 23° C. in polypropylene tubes and the assays terminated by rapid vacuum filtration over Whatman GF/B glass fiber filters previously soaked in 0.3% polyethyleneimine using ice-cold buffer. Test compounds (at different concentrations) are substituted for methiothepin. Filter-bound radioactivity is determined by scintillation spectrometry on a beta counter. The data are analyzed using a non-linear, iterative curve-fitting computer program [Trends Pharmacol. Sci., 16, 413 (1995)] to determine the compound affinity parameter. The concentration of the compound needed to inhibit the [^125I]DOI binding by 50% of the maximum is termed the IC50 or Ki value.

5-HT2A receptor [2] = target: T1, 5-HT2A receptor; experiment: 5-HT2 Functional Assay: [Ca2+]i Mobilization (FLIPR); type: cell-based; design: endogenous in cells; host or cells: A7r5 rat vascular smooth muscle cells; conditions: for EC50: [Ca2+]i mobilization, rat vascular smooth muscle cells A7r5; for Emax: percentage of maximum 5-HT-induced response, A7r5 cells
Description: 5-HT2 Functional Assay: [Ca^2+]i; Mobilization
The receptor-mediated mobilization on intracellular calcium ([Ca^2+]i) was studied using the Fluorescence Imaging Plate Reader (FLIPR) instrument. Rat vascular smooth muscle cells, A7r5, were grown in a normal media of DMEM/10% FBS and 10 μg/mL gentamycin. Confluent cell monolayers were trypsinized, pelleted, and re-suspended in normal media. Cells were seeded in a 50 μL volume at a density of 20,000 cells/well in a black wall, 96-well tissue culture plate and grown for 2 days.
On the day of the experiment, one vial of FLIPR Calcium Assay Kit dye was re-suspended in 50 mL of a FLIPR buffer consisting of Hank's Balanced Salt Solution (HBSS), 20 mM HEPES, and 2.5 mM probenecid, pH 7.4. Cells were loaded with the calcium-sensitive dye by addition of an equal volume (50 μL) to each well of the 96-well plate and incubated with dye for 1 h at 23° C.
Typically, test compounds were stored at 25 μM in 50% DMSO/50% Ethanol solvent. Compounds were diluted 1:50 in 20% DMSO/20% Ethanol. For “hit” screening, compounds were further diluted 1:10 in FLIPR buffer and tested at a final concentration of 10 μM. For dose-response experiments, compounds were diluted 1:50 in FLIPR buffer and serially diluted 1:10 to give a 5- or 8-point dose-response curve.
The compound plate and cell plate were placed in the FLIPR instrument. At the beginning of an experimental run, a signal test was performed to check the basal fluorescence signal from the dye-loaded cells and the uniformity of the signal across the plate. The basal fluorescence was adjusted between 8000–12000 counts by modifying the exposure time, the camera F-stop, or the laser power. Instrument settings for a typical assay were the following: laser power 0.3–0.6 W, camera F-stop F/2, and exposure time 0.4 sec. An aliquot (25 μL) of the test compound was added to the existing 100 μL dye-loaded cells at a dispensing speed of 50 μL/sec. Fluorescence data were collected in real-time at 1.0 sec intervals for the first 60 secs and at 6.0 sec intervals for an additional 120 secs. Responses were measured as peak fluorescence intensity minus basal and where appropriate were expressed as a percentage of a maximum 5-HT-induced response. When the compounds were tested as antagonists against 10 μM 5-HT, they were incubated with the cells for 15 minutes prior to the addition of 5-HT.

T1 sequence (P14842 whole entry): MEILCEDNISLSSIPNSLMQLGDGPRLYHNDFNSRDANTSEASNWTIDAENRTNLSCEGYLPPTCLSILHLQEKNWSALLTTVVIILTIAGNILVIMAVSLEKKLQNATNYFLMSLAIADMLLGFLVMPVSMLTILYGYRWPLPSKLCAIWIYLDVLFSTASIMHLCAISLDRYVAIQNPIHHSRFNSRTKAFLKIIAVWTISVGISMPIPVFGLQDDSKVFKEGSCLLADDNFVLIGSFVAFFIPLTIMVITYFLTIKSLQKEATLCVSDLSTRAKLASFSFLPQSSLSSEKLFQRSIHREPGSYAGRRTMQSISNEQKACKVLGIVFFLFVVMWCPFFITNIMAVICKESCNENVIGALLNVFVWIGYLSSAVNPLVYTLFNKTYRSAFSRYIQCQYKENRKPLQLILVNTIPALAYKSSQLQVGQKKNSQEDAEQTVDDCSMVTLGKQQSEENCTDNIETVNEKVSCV

Row | SMILES | IC50 (5-HT2A receptor [1]) | EC50 (5-HT2A receptor [2]) | Emax (5-HT2A receptor [2]) | melting point
1 | COc1nc2c(ccc3cnn(C[C@H](C)N)c32)o1 [Example 1, (S)-2-(7-Methoxy-1H-pyrazolo[3,4-e]benzoxazol-1-yl)-1-methylethylamine] | 8 nM | 352 nM | 72% | 
2 | COCc1nc2c(ccc3cnn(C[C@H](C)N)c32)o1 [Example 2, (S)-2-[7-(Methoxymethyl)-1H-pyrazolo[3,4-e]benzoxazol-1-yl]-1-methylethylamine] | 6 nM | 174 nM | 88% | 40 to 43 °C
3 | C[C@H](N)Cn1ncc2ccc3oc(C(N)=O)nc3c21 [Example 3, 1-[(S)-2-Aminopropyl]-1H-pyrazolo[3,4-e]benzoxazole-7-carboxylic acid amide] |  | 445 nM | 72% | 60 to 65 °C
4 | CNC(=O)c1nc2c(ccc3cnn(C[C@H](C)N)c32)o1 [Example 4, 1-[(S)-2-Aminopropyl]-1H-pyrazolo[3,4-e]benzoxazole-7-carboxylic acid methylamide] | 19 nM | 907 nM | 77% | 
